For 14 compounds, EC50 results are on record in patent US8343990B2, “Substituted cyclopropyl compounds, compositions containing such compounds and methods of treatment” (Merck Sharp & Dohme Corp., priority 2008, dated 2013).

The target in the experiment is T1, GPR119 receptor (UniProt Q8TDV5, S309L, species not given).
T1 sequence (Q8TDV5 1-335 S309L): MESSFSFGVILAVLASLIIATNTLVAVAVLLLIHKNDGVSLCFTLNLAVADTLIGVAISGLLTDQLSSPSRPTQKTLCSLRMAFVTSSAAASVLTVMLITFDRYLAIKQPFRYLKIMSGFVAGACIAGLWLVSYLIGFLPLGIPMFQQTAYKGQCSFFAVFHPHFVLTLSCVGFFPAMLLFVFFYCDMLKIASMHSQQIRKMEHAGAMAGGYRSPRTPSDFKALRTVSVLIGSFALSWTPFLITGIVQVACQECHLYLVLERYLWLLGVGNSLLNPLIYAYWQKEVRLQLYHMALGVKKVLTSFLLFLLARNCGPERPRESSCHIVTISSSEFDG
Briefly: GPR119 signaling, cyclic AMP (cAMP) homogenous time resolved fluorescence (HTRF) assay. The class given is cell-based. Particulars: CHO cells with Gα15 and murine GPR119, or HEK293 Flp-In cells with human GPR119 S309L; table does not say which; read-out: Activity: inflection points, denoted as EC50 values (agonist activation of GPR119, cAMP). An excerpt: Measurement of GPR119 Signaling Using a Cyclic AMP (cAMP) Homogenous Time Resolved Fluorescence (HTRF) Assay
Chinese hamster ovary (CHO) cell lines stably transfected with the permissive guanine nucleotide binding protein alpha 15 (Gα15) and […] GPR119 were maintained in DMEM media containing FBS, penicillin-streptomycin, puromycin, and G418 (geneticin). Alternatively, human embryonic kidney (HEK)293 Flp-In cells (Invitrogen, Carlsbad, Calif.) were stably transfected with a human SNP variant (S309L) of GPR119 and maintained in DMEM media containing FBS, penicillin-streptomycin, and hygromycin. Agonist activation of the GPR119 receptor was measured in receptor transfected cells described above, treated with compounds of this invention, using a commercial homogenous time resolved fluorescence (HTRF) kit for measurement of cAMP (CisBio, Bedford, Mass.). The assay was performed in 96-well half-volume plates (murine) or 384-well plates (human) following the manufacturers instructions. Briefly, suspended cells were incubated with a dose titration of test compound at room temperature for 60 min, lysed, and incubated with HTRF reagents for an additional 60 min. The plate was read using an Envision multilabel reader (Perkin Elmer) adjusted to read time resolved fluorescence and the cAMP concentrations were extrapolated from a cAMP calibration curve. […] The concentration of test compound required to stimulate a half-maximal response (EC50), and efficacy as compared to an internal agonist control, was determined from a sigmoidal 4-parameter curve fit of the resulting plot of normalized activity versus compound concentration.

For `Clc1cnc(N2CCC(C3CC3CCOc3ccc(-c4cocn4)cc3)CC2)nc1` (racemic) [Ex 19, rac cis-5-chloro-2-[4-(2-{2-[4-(1,3-oxazol-4-yl)phenoxy]ethyl}cyclopropyl)piperidin-1-yl]pyrimidine], the EC50 was in the range of 10 to 50 nM.

For the compound `Clc1cnc(N2CCC(C3CC3CCOc3ccc(-c4cnoc4)cc3)CC2)nc1` (racemic) [Ex 20, rac cis-5-chloro-2-(4-{2-[2-(4-isoxazol-4-ylphenoxy)ethyl]cyclopropyl)piperidin-1-yl)pyrimidine], the EC50 lay within 50 to 200 nM.

For the compound `Clc1cnc(N2CCC(C3CC3CCOc3ccc(-c4ccno4)cc3)CC2)nc1` (racemic) [Ex 21, rac cis-5-chloro-2-(4-{2-[2-(4-isoxazol-5-ylphenoxy)ethyl]cyclopropyl}piperidin-1-yl)pyrimidine], the EC50 is 10 to 50 nM. For `Clc1cnc(N2CCC(C3CC3CCOc3ccc(-c4ccn[nH]4)cc3)CC2)nc1` (racemic) [Ex 22, rac cis-5-chloro-2-[4-(2-{2-[4-(1H-pyrazol-3-yl)phenoxy]ethy]}cyclopropyl)piperidin-1-yl]pyrimidine] the value was 10 to 50 nM; for `Clc1cnc(N2CCC(C3CC3CCOc3ccc(-c4cn[nH]c4)cc3)CC2)nc1` (racemic) [Ex 23, rac cis-5-chloro-2-[4-(2-{2-[4-(1H-pyrazol-4-yl)phenoxy]ethyl}cyclopropyl)piperidin-1-yl]pyrimidine], 50 to 200 nM; for `Clc1cnc(N2CCC(C3CC3CCOc3ccc(-n4cccn4)cc3)CC2)nc1` (racemic) [Ex 24, rac cis-5-chloro-2-[4-(2-{2-[4-(1H-pyrazol-1-yl)phenoxy]ethyl}cyclopropyl)piperidin-1-yl]pyrimidine], 50 to 200 nM. For `Clc1cnc(N2CCC(C3CC3CCOc3ccc(-n4cncn4)cc3)CC2)nc1` (racemic) [Ex 25, rac cis-5-chloro-2-[4-(2-{2-[4-(1H-1,2,4-triazol-1-yl)phenoxy]ethyl}cyclopropyl)piperidin-1-yl]pyrimidine] the value was 10 to 50 nM. For `Clc1cnc(N2CCC(C3CC3CCOc3ccc(-n4cnnc4)cc3)CC2)nc1` (racemic) [Ex 26, rac cis-5-chloro-2-[4-(2-{2-[4-(4H-1,2,4-triazol-4-yl)phenoxy]ethyl}cyclopropyl)piperidin-1-yl]pyrimidine] the value was 10 to 50 nM. As to `Clc1cnc(N2CCC(C3CC3CCOc3ccc(-n4ccnn4)cc3)CC2)nc1` (racemic) [Ex 27, rac cis-5-chloro-2-[4-(2-{2-[4-(1H-1,2,3-triazol-1-yl)phenoxy]ethyl}cyclopropyl)piperidin-1-yl]pyrimidine], the EC50 is under 10 nM. For `Cc1cnc(N2CCC(C3CC3CCOc3ccc(-n4ccnn4)cc3)CC2)nc1` (racemic) [Ex 27c, rac cis-5-methyl-2-[4-(2-{2-[4-(1H-1,2,3-triazol-1-yl)phenoxy]ethyl}cyclopropyl)piperidin-1-yl]pyrimidine] the value was 10 to 50 nM. The same measure for `Clc1cnc(N2CCC(C3CC3CCOc3ccc(-n4nccn4)cc3)CC2)nc1` (racemic) [Ex 28, rac cis-5-chloro-2-[4-(2-{2-[4-(2H-1,2,3-triazol-2-yl)phenoxy]ethyl}cyclopropyl)piperidin-1-yl]pyrimidine]: 50 to 200 nM; for `Clc1cnc(N2CCC(C3CC3CCOc3ccc(-c4cnn[nH]4)cc3)CC2)nc1` (racemic) [Ex 29, rac cis-5-chloro-2-[4-(2-{2-[4-(1H-1,2,3-triazol-5-yl)phenoxy]ethyl}cyclopropyl)piperidin-1-yl]pyrimidine]: over 200 nM; for `Clc1cnc(N2CCC(C3CC3CCOc3ccc(-n4cnnn4)cc3)CC2)nc1` (racemic) [Ex 30, rac cis-5-chloro-2-[4-(2-{2-[4-(1H-tetrazol-1-yl)phenoxy]ethyl}cyclopropyl)piperidin-1-yl]pyrimidine]: under 10 nM. The same measure for `Fc1cc(OCCC2CC2C2CCN(c3ncc(Cl)cn3)CC2)ccc1-n1cnnn1` (racemic) [Ex 30b, rac cis-5-chloro-2-[4-(2-{2-[3-fluoro-4-(1H-tetrazol-1-yl)phenoxy]ethyl}cyclopropyl)piperidin-1-yl]pyrimidine]: under 10 nM.
